Numbering of substitutions follows the chain as printed.
Assays:
Format in all cases: cell-based
WT AR = molecular target: T1, WT AR (Homo sapiens, UniProt P10275); assay: Antagonism in WT AR, AR transactivation reporter gene assay (COS-1 cells, or INDIGO Human AR Reporter Assay System), competitive setting with reference agonist; conditions: for activity at 1 µM / activity at 10 µM: COS-1, read-out: Relative LUC activity (%) indicating residual androgen activity in relation to reference agonist (100%); for Relative LUC activity (%) indicating residual androgen activity in relation to reference agonist (100%): competitive setting with reference agonist (50 nM testosterone or 400 pM FIT)
T1 construct: expressed in transfected cells; host or cells: COS-1 cells (transient transfection); alternatively non-human mammalian cells of the INDIGO Biosciences Human AR Reporter Assay System
T1 sequence (P10275 1-920): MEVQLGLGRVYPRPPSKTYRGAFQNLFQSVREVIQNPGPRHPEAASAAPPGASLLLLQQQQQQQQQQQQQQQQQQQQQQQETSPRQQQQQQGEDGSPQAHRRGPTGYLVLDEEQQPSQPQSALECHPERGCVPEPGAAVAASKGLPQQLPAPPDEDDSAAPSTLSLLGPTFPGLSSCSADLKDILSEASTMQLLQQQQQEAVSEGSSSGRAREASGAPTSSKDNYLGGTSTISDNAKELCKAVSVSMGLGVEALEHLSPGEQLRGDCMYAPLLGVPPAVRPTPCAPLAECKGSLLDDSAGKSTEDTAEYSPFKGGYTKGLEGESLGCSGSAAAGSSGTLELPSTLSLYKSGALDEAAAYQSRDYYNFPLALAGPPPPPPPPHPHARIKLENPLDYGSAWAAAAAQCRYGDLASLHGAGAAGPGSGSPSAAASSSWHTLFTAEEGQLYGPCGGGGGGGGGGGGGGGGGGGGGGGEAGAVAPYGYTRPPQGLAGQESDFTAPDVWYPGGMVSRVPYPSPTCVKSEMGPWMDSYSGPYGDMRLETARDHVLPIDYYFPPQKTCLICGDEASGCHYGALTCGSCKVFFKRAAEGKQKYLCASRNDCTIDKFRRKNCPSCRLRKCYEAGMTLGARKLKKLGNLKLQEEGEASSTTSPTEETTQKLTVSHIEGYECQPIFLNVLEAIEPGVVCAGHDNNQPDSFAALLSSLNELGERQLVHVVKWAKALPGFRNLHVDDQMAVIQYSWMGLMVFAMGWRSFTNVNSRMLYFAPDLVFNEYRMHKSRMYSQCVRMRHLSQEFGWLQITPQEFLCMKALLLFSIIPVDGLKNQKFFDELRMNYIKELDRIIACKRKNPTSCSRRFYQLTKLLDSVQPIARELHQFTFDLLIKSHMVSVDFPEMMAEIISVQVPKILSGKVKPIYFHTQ
Description: After 18 h, reporter gene activities (LUC and beta-galactosidase) were determined according to standard methods. The data are expressed as relative LUC activity (luciferase light units divided by beta-galactosidase A420nm to control for transfection efficiency) of a given compound in relation to the activity of a reference test item (=100%).
Alternatively, commercial Human AR Reporter Assay System (INDIGO Biosciences) was used. In this assay, non-human mammalian cells are engineered to express human WT AR together with LUC reporter gene linked to AR-responsive promoter. 400 pM 6-alpha-FI testosterone, FIT, was used as a reference agonist in a competitive setting.
Antagonism in WT AR of compounds of the present invention was measured in AR transactivation assay in COS-1 cells in competitive setting using testosterone as a reference agonist as described above. Alternatively INDIGO Bioscience's Human AR Reporter Assay System was utilized. […] Relative LUC activity representing AR-dependent transcription obtained by exposure to reference agonist alone was set to 100%.

T877A AR = molecular target: T2, T877A AR (Homo sapiens, UniProt P10275, T878A); assay: Agonism in T877A mutant AR, AR transactivation assay in COS-1 cells, test compounds alone; conditions: 10 microM; compound alone
T2 construct: expressed in transfected cells; host or cells: COS-1 cells
T2 sequence (P10275 1-920 T878A): T1 sequence (P10275 1-920) with T878A
Description: (§1) COS-1 cells (American Type Culture Collection, ATCC) were cultured in Dulbecco's Modified Eagle Medium (DMEM) supplemented with 10% fetal bovine serum (FBS), penicillin (6.25 U/ml) and streptomycin (6.25 μg/ml) and seeded onto 48-well plates (50 000 cells/well) one day before transfection. Transfection media containing 2.5% charcoal-stripped FBS in DMEM was changed on cells 4 h prior to transfection. Cells were transfected with 50 ng of luciferase (LUC) reporter gene plasmid (pPB-286/+32-LUC; PB, probasin promoter), 5 ng of AR expression plasmid (pSG5-hAR), and 5 ng of pCMVβ (an internal, beta-galactosidase control for transfection efficiency and cell growth) using TransIT-LT1 reagent (Mirus Bio Corporation) according to the manufacturer's instructions. […] After 18 h, reporter gene activities (LUC and beta-galactosidase) were determined according to standard methods. The data are expressed as relative LUC activity (luciferase light units divided by beta-galactosidase A420nm to control for transfection efficiency) of a given compound in relation to the activity of a reference test item (=100%).
Agonism in T877A AR of compounds of the present invention was measured in AR transactivation assay in COS-1 cells as described above except that AR expression vector harboring the T877A mutation was used. The transfected cells were exposed to test compounds alone. Testosterone was used as reference agonist, and its' relative LUC activity representing AR-dependent transcription was set to 100%.

W741L AR = molecular target: T3, W741L AR (Homo sapiens, UniProt P10275, W742L); assay: Agonism in W741L mutant AR, AR transactivation assay in COS-1 cells, test compounds alone; conditions: 10 microM; compound alone
T3 construct: expressed in transfected cells; host or cells: COS-1 cells
T3 sequence (P10275 1-920 W742L): T1 sequence (P10275 1-920) with W742L
Description: as §1
Agonism in W741L AR of compounds of the present invention was measured in AR transactivation assay in COS-1 cells as described above except that AR expression vector harboring the W741L mutation was used instead of the WT AR. The transfected cells were exposed to test compounds alone.

SMILES	activity at 1 µM (WT AR) [%]	activity at 10 µM (WT AR) [%]	Relative LUC activity (%) in T877A AR in relation to testosterone (100%) (T877A AR) [%]	Relative LUC activity (%) in W741L AR in relation to BIC (100%) (W741L AR) [%]	Relative LUC activity (%) indicating residual androgen activity in relation to reference agonist (100%) (WT AR; 1 microM compound) [%]	Relative LUC activity (%) indicating residual androgen activity in relation to reference agonist (100%) (WT AR; 10 microM compound) [%]
N#Cc1ccc(NC(=O)C(O)(CS(=O)(=O)c2ccc(F)cc2)c2ccc(C(F)(F)F)nc2)cc1Cl (stereo not shown) [Example 15, N-(3-chloro-4-cyanophenyl)-3-(4-fluorobenzenesulfonyl)-2-hydroxy-2-[6-(trifluoromethyl)pyridin-3-yl]propanamide]	25	3	–	–	–	–
CC(C)CCS(=O)(=O)CC(O)(C(=O)Nc1ccc(C#N)c(C(F)(F)F)c1)c1ccc(Cl)nc1 (stereo not shown) [Example 6, 2-(6-chloropyridin-3-yl)-N-[4-cyano-3-(trifluoromethyl)phenyl]-2-hydroxy-3-[(3-methylbutane)sulfonyl]propanamide]	–	–	4	31	28	7
CCS(=O)(=O)CC(O)(C(=O)Nc1ccc(C#N)c(C(F)(F)F)c1)c1ccc(Cl)nc1 (stereo not shown) [Example 1, 2-(6-chloropyridin-3-yl)-N-[4-cyano-3-(trifluoromethyl)phenyl]-3-(ethanesulfonyl)-2-hydroxypropanamide]	37	8	13	6	–	–
N#Cc1ccc(NC(=O)C(O)(CS(=O)(=O)c2ccc(Cl)cc2)c2ccc(Cl)nc2)cc1Cl (stereo not shown) [Example 9, N-(3-chloro-4-cyanophenyl)-3-[(4-chlorobenzene)sulfonyl]-2-(6-chloropyridin-3-yl)-2-hydroxypropanamide]	–	–	3	23	25	13
N#Cc1ccc(NC(=O)C(O)(CS(=O)(=O)Cc2ccc(Cl)cc2)c2ccc(Cl)nc2)cc1Cl (stereo not shown) [Example 8, N-(3-chloro-4-cyanophenyl)-3-{[(4-chlorophenyl)methane]sulfonyl}-2-(6-chloropyridin-3-yl)-2-hydroxypropanamide]	–	–	2	4	32	4
CC(C)S(=O)(=O)CC(O)(C(=O)Nc1ccc(C#N)c(C(F)(F)F)c1)c1ccc(Cl)nc1 (stereo not shown) [Example 12, 2-(6-chloropyridin-3-yl)-N-[4-cyano-3-(trifluoromethyl)phenyl]-2-hydroxy-3-(propane-2-sulfonyl)propanamide]	30	5	4	3	–	–

Reference: patent publication US9650382B2, “Heteroarylamide derivatives having antiandrogenic properties” (MEDEIA THERAPEUTICS LTD, priority 2012, dated 2017)
